We go through 15 molecules from PubChem BioAssay (NCI).

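Dose response: 5 concentrations. Exposure: 48 h. Format: 96-well plates. Endpoint: linear interpolation; highest concentration if not reached. TGI is the concentration that stops growth completely.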

Among the test systems are MOLT-4 leukemia; TK-10 renal; U251 CNS; UO-31 renal; SW-620 colon; SF-539 CNS; SK-MEL-2 melanoma; NCI-H226 lung; SK-MEL-28 melanoma; DU-145 prostate.
Holding throughout (assay): NCI anticancer screen, dose series, 48 h

Take `CC(C)(C)c1ccnc(N=C2N=C(Nc3cc(C(C)(C)C)ccn3)c3ccccc32)c1`: the TGI with MOLT-4 leukemia was 85.8 µM; with TK-10 renal, 46.1 µM; with U251 CNS it was 51 µM; in the test on UO-31 renal, 65.3 µM; in the test with SW-620 colon it was over 100 µM; with SF-539 CNS, over 100 µM. Besides, the TGI in the test with SK-MEL-2 melanoma was over 100 µM; in the test with NCI-H226 lung it was over 100 µM; in the test on SK-MEL-28 melanoma, 86.8 µM.
Take `O=C(C(=C(I)I)c1ccccc1)c1ccccc1`: the TGI in the test on MOLT-4 leukemia is 58.1 µM; with TK-10 renal it was 83.7 µM; in the test with UO-31 renal, 58.8 µM; with SW-620 colon, over 100 µM; with SF-539 CNS, 52.6 µM; in the test on SK-MEL-2 melanoma it was 38 µM. For the same molecule, the TGI in the test on SK-MEL-28 melanoma is 94.7 µM.
As to `O=C1CSC(c2c[nH]c3ccccc23)N1c1ccc(Cl)cc1Cl` (configuration not stated), the TGI in the test on MOLT-4 leukemia, in the test on TK-10 renal, in the test on DU-145 prostate, in the test on U251 CNS, in the test on UO-31 renal and in the test on SW-620 colon was over 100 µM each time. For the same molecule, the TGI in the test with SF-539 CNS and with SK-MEL-28 melanoma was over 100 µM each time.
As for `N#Cc1c(-c2ccc([N+](=O)[O-])cc2)c(C#N)c(=O)n(NS(=O)(=O)c2ccccc2)c1O`, the TGI in the test with MOLT-4 leukemia, with TK-10 renal, in the test with U251 CNS, in the test with SW-620 colon, with SF-539 CNS and with SK-MEL-2 melanoma was over 100 µM in each case. The TGI in the test on NCI-H226 lung and with SK-MEL-28 melanoma was over 100 µM throughout.
As for `CCn1ncc2c(=O)n3ncn(-c4ccc(Br)cc4)c3nc21`, the TGI in the test with MOLT-4 leukemia, in the test on TK-10 renal, in the test with DU-145 prostate, in the test with U251 CNS, with UO-31 renal and with SW-620 colon was over 100 µM in each case. Moreover, the TGI in the test on SK-MEL-2 melanoma, with NCI-H226 lung and in the test on SK-MEL-28 melanoma was over 100 µM each time.
For `O=[N+]([O-])c1ccc(-c2csc(=[N+]3CCCCC3)s2)cc1`, the TGI was over 60.9 µM in the test with MOLT-4 leukemia; over 100 µM with TK-10 renal; over 20.8 µM in the test on U251 CNS; over 100 µM in the test on UO-31 renal; over 100 µM in the test on SW-620 colon; over 100 µM in the test with SF-539 CNS. Moreover, the results for the TGI in the test with SK-MEL-2 melanoma and with SK-MEL-28 melanoma were 60.2 µM and over 100 µM, respectively.
With `CC(C)=C/C(CC(O)(C(F)(F)F)C(F)(F)F)=N\O`, the TGI with MOLT-4 leukemia, in the test on TK-10 renal, in the test with DU-145 prostate, with U251 CNS, in the test with UO-31 renal and in the test on SW-620 colon was over 100 µM each time. Also, the TGI with SF-539 CNS, in the test on NCI-H226 lung and with SK-MEL-28 melanoma was over 100 µM each time.
Consider `COc1ccc(C2C=C(c3ccc(C)cc3)N(c3ccc(OC)cc3[N+](=O)[O-])C3C(=O)OC(=O)C23)c(OC)c1` (configuration not stated), for which the TGI was 91.6 µM in the test with MOLT-4 leukemia; over 100 µM with TK-10 renal; over 100 µM in the test on U251 CNS; 80.9 µM with SW-620 colon; 53.2 µM in the test with SF-539 CNS; over 100 µM in the test on SK-MEL-2 melanoma. Also, the TGI with NCI-H226 lung and with SK-MEL-28 melanoma was over 100 µM in each case.
Take `C=C(C)[C@H]1CC23C(=O)[C@@](C)(C[C@H]2C1(C)C)C(=O)C(C(=O)C(C)C)=C3O`: the TGI in the test on MOLT-4 leukemia was 19 µM; in the test with TK-10 renal, 53.3 µM; in the test on DU-145 prostate, over 100 µM; in the test with U251 CNS, 39.7 µM; in the test on UO-31 renal, 39.2 µM; in the test on SW-620 colon, 34.5 µM. Further, the TGI is 33.6 µM in the test on SK-MEL-2 melanoma, 30.3 µM in the test with NCI-H226 lung and 28.6 µM in the test with SK-MEL-28 melanoma.
`O=C1c2cc3c(cc2CC12Cc1ccc4c(c1C2=O)CCC4)CCC3` (configuration not stated): the TGI in the test with MOLT-4 leukemia, in the test with TK-10 renal, in the test with DU-145 prostate, in the test with U251 CNS, in the test on UO-31 renal and in the test with SW-620 colon was over 100 µM throughout. Also, the TGI in the test on SF-539 CNS, in the test on SK-MEL-2 melanoma and in the test with SK-MEL-28 melanoma was over 100 µM each time.
For `Cc1nc2c(=O)n(-c3ccccc3)c(=O)n(-c3ccccc3)c2o1`, the TGI in the test on MOLT-4 leukemia, in the test on TK-10 renal, in the test with U251 CNS, with UO-31 renal, in the test with SW-620 colon and with SF-539 CNS was over 100 µM each time. Moreover, the TGI in the test with SK-MEL-2 melanoma and with NCI-H226 lung was over 100 µM each time.
Take `CSc1ccc(/C=C2\N=C(c3ccccc3)N(c3nc4cc(Cl)c(F)cc4s3)C2=O)cc1`: the TGI was over 100 µM with MOLT-4 leukemia; over 100 µM in the test on TK-10 renal; over 100 µM with DU-145 prostate; 41.7 µM in the test on U251 CNS; over 100 µM in the test with UO-31 renal; over 100 µM with SW-620 colon. Further, the values for the TGI in the test with SF-539 CNS, in the test with SK-MEL-2 melanoma and with SK-MEL-28 melanoma were 82.6 µM, 50.4 µM and over 100 µM, respectively.
With `CSc1nc(=O)c2nc(-c3cccs3)c(-c3cccs3)nc2n1C`, the TGI with MOLT-4 leukemia, in the test with TK-10 renal, with DU-145 prostate, in the test on U251 CNS, in the test with UO-31 renal and with SW-620 colon was over 100 µM in each case. Further, the TGI in the test on SK-MEL-2 melanoma and in the test on SK-MEL-28 melanoma was over 100 µM throughout.
Turning to `CCCCNC(=O)Cn1c2ccc(Br)cc2c2nc3ccccc3nc21`, the TGI in the test with MOLT-4 leukemia, with TK-10 renal, with DU-145 prostate, in the test with U251 CNS, in the test on UO-31 renal and with SW-620 colon was over 100 µM throughout. In addition, the TGI in the test with SK-MEL-2 melanoma, in the test with NCI-H226 lung and in the test with SK-MEL-28 melanoma was over 100 µM throughout.
Consider `CC(=O)Oc1ccn2nc(C)c(Br)c2c1`, for which the TGI with MOLT-4 leukemia, with TK-10 renal, with DU-145 prostate, with U251 CNS, in the test with SW-620 colon and in the test with SF-539 CNS was over 100 µM throughout. Moreover, the TGI with SK-MEL-2 melanoma, in the test with NCI-H226 lung and with SK-MEL-28 melanoma was over 100 µM each time.
